Columns and labels:
Format in all cases: cell-based
[1] = test system: Human iPS cells (HC-6 #10 strain); assay: Cell mass from human iPS cells using BMP signal transduction pathway inhibiting substance (K02288) after addition of BMP4; bright field observation and immunostaining; settings: K02288 300 nM added on day 3, 6 or 10; day 28
Experimental: Human iPS cells (HC-6 #10 strain, obtained from RIKEN) were cultured under feeder-free conditions according to the method described in Scientific Reports, 4, 3594 (2014). As the feeder-free medium, StemFit medium was used and, as the feeder-free scaffold, Laminin 511-E8 was used.
(§1) Specific maintenance culturing operation was performed in the same manner as in Example 1.
The thus-prepared subconfluent human iPS cells were washed with PBS, subjected to an enzyme treatment using Accumax, a serum-free medium for differentiation induction was added, and the cells were scraped from the surface of the culture dish by using a cell scraper and dispersed into single cells by pipetting. Thereafter, the aforementioned human ES cells dispersed into single cells were suspended in 100 μl of a serum-free medium at 9×10^3 cells per well of a non-cell-adhesive 96-well culture plate (PrimeSurface 96V-bottom plate, manufactured by SUMITOMO BAKELITE), and cultured in suspension under the conditions of 37° C., 5% CO2. […]

[2] = test system: Human ES cells (KhES-1 strain); assay: Addition conditions of Sonic hedgehog signal transduction pathway activating substance (SAG) in production of cell mass containing pituitary tissue; bright field observation; settings: day 28
Experimental: (§2) Human ES cells (KhES-1 strain, obtained from Kyoto University) were cultured under feeder-free conditions according to the method described in Scientific Reports, 4, 3594 (2014). As the feeder-free medium, StemFit medium was used and, as the feeder-free scaffold, Laminin 511-E8 was used.
as §1
(§3) Thereafter, suspension culturing in a 96 well plate was started under conditions similar to those in Example 1.
A serum-free medium not containing Y27632 and containing IWP-2, SB-431542, BMP4, and SAG was added at 100 μl per well on day 2 from the start of suspension culturing. BMP4 was added at 3 nM to the medium so that the final concentration in the well would be 1.5 nM. SAG was added at a final concentration of 100, 300, 500, 700 nM, 1, 2, 5 μM as a Sonic hedgehog signal transduction pathway activating substance. The condition without addition of a Sonic hedgehog signal transduction pathway activating substance during the suspension culturing period was taken as the control (-SAG condition, FIG. 5A).
A half amount of the medium was changed with a serum-free medium not containing Y27632 or BMP4, and containing IWP-2, SB-431542, each concentration of SAG on days 6, 10, 13, 17, 21, 24 from the start of suspension culturing. […]

[3] = test system: Human ES cells (KhES-1 strain); assay: Effect of compound treatment before differentiation induction in production of cell mass containing pituitary tissue; bright field observation; settings: day 28
Experimental: Human ES cells (KhES-1 strain) were cultured under feeder-free conditions according to the method described in Scientific Reports, 4, 3594 (2014). As the feeder-free medium, StemFit medium was used and, as the feeder-free scaffold, Laminin 511-E8 was used. Specific maintenance culturing operation was performed in the same manner as in Example 1. As a pre-treatment for differentiation induction of the cultured cells, cells under 4 conditions were maintenance cultured under conditions in which, condition in which nothing is simultaneously added with medium change with […] medium (Control), conditions in which 300 nM SAG alone is added (+300 nM SAG), conditions in which 5 μM SB-431542 alone is added (+5 μM SB-431542), and conditions in which SAG and SB431542 are simultaneously added (+SAG/SB) at 6 days after seeding. The next day of the above-mentioned treatment, human ES cells under 4 conditions that reached subconfluence were each subjected to differentiation induction by suspension culturing into a cell mass containing pituitary tissue according to the method described in Example 1. Bright field observation was performed under an inverted microscope on day 28 from the start of suspension culturing (FIGS. 6A-D).

[4] = test system: Human ES cells (KhES-1 strain); assay: Timing of addition of BMP4 in production of cell mass from human ES cells; bright field observation; settings: for structure of cell mass (bright field): observed day 10
Experimental: as §2, §1, §3
The condition without addition of a BMP signal transduction pathway activating substance during the suspension culturing period was taken as the control (-BMP4 condition, FIG. 3A). Thereafter, in the condition with the addition of a BMP signal transduction pathway activating substance on days 1, 2 or 3 from the start of suspension culturing (Day1-3+BMP4 condition, FIGS. 3B-D), a serum-free medium not containing Y27632 and containing IWP-2, SB-431542, BMP4 was added at 100 μl per well. BMP4 was added at 3 nM to the medium so that the final concentration in the well would be 1.5 nM. […] On day 10 from the start of suspension culturing, bright field observation was performed using an inverted microscope (manufactured by KEYENCE CORPORATION, BIOREVO) (FIGS. 3A-D).

[5] = test system: Human ES cells (KhES-1 strain); assay: Addition concentration of BMP4 in production of cell mass containing pituitary tissue; bright field observation; settings: 0.5 nM, 1.5 nM or 5 nM BMP4 added once on day 2; day 28
Experimental: as §2, §1, §3
A serum-free medium not containing Y27632 and containing IWP-2, SB-431542, BMP4, and SAG was added at 100 μl per well on day 2 from the start of suspension culturing. In this case, the amount of BMP4 to be added was under 4 conditions of 0.5 nM, 1.5 nM, 5 nM and no addition control. BMP4 was added at twice the concentration set for the medium so that the final concentration set for the well could be achieved. SAG was added at 4 μM to the medium so that the final concentration in the well would be 2 μM.
A half amount of the medium was changed with a serum-free medium not containing Y27632 or BMP4 and containing IWP-2, SB-431542 and SAG on days 6, 10, 13, 17, 21 and 24 from the start of suspension culturing.
Bright field observation was performed under an inverted microscope on day 28 from the start of suspension culturing (FIGS. 8A-D).

For `COc1cc(-c2cc(-c3cccc(O)c3)cnc2N)cc(OC)c1OC` [K02288, 3-[6-amino-5-(3,4,5-trimethoxyphenyl)-3-pyridinyl]-phenol], the “cell mass formation (bright field)” value [1] was “a cell mass in which nonneural epithelial tissue surrounds neural tissue of the center part was formed”.

`CNC1CCC(N(Cc2cccc(-c3ccncc3)c2)C(=O)c2sc3ccccc3c2Cl)CC1` (stereo not shown) [SAG] was tested, and the “size of cell mass and formation of pituitary tissue on the surface” value ([2]; SAG 100 nM, 300 nM, 500 nM, 700 nM, 1 μM or 2 μM compared with 5 μM) was “the size of the cell mass was larger and formation of pituitary tissue on the surface of cell mass was fine”, the “structure of cell mass (bright field)” value ([2]; SAG 100, 300, 500, 700 nM, 1, 2, 5 μM added on day 2, compared with no SAG) was “cell masses with the nonneural epithelial tissue invaginated like Rathke's pouch on the surface and containing neuroepithelium-like tissue and mesenchymal cells in the inside” and the “size of cell mass” value ([3]; pre-treatment with 300 nM SAG alone vs no addition) was “cell mass became large”. The “presence of mesenchymal cell” value ([3]; pre-treatment with 300 nM SAG alone) was “the presence of a mesenchymal cell could also be confirmed”.

B1: BMP4: BMP protein; BMP signal transduction pathway activating substance (protein, UniProt P12644 293-408, looked up)
Bone morphogenetic protein 4: SPKHHSQRARKKNKNCRRHSLYVDFSDVGWNDWIVAPPGYQAFYCHGDCPFPLADHLNSTNHAIVQTLVNSVNSSIPKACCVPTELSAISMLYLDEYDKVVLKNYQEMVVEGCGCR
B1 was tested, and the “effective timing of addition from start of suspension culturing for formation of cell mass coated with nonneural epithelial tissue” value ([4]; BMP4 1.5 nM) was at most 72 h, the “structure of cell mass (bright field)” value ([4]; BMP4 1.5 nM added on day 1 or day 2) was “cell masses containing neural tissue and nonneural epithelial tissue and having a two-layer structure in which a center part with a neuroepithelium-like structure is covered with a nonneural epithelium-like layer were formed” and the “structure of cell mass (bright field)” value ([4]; BMP4 1.5 nM added on day 3 (and day 6)) was “outer nonneural epithelium-like tissue was not formed”. The “size of embryoid body” value ([4]; BMP4 added on day 2 compared with day 1, day 10) was “larger than the embryoid body obtained under the condition with the addition of BMP4 on day 1” and the “nonneural epithelial structure on surface of cell mass” value [5] was “a nonneural epithelial structure was formed on the surface of the cell mass”.
